Measurements as given in US20090062273A1, “3-H-pyrazolopyridines and salts thereof, pharmaceutical compositions comprising same, methods of preparing same and uses of same” (priority 2006, published 2009).

How the values were obtained:
[1] = target: T1, Tie2 (Homo sapiens, UniProt Q02763); test: Tie2 ELISA assay (cellular Tie2 autophosphorylation); assay type: cell-based; design: expressed in transfected cells; host or cells: CHO (CHO Tie2/DHFR); conditions: CHO cells stably transfected with Tie2, stimulated by angiopoietin-2; Tie2 autophosphorylation by sandwich-ELISA; read-out: Tie 2 activity (assay 1)
Experimental: Cellular activity of compounds of the present invention as inhibitors of Tie2 kinase activity was measured employing a Tie2 ELISA assay as described in the following paragraphs. Herein CHO cell-cultures, which are stably transfected by known techniques with Tie2 using DHFR deficiency as selection marker, are stimulated by angiopoietin-2. The specific autophosphorylation of Tie2 receptors is quantified with a sandwich-ELISA using anti-Tie2 antibodies for catch and anti-phosphotyrosine antibodies coupled to HRP for detection.
• 96 well tissue culture plate, sterile, Greiner • 96 well FluoroNunc plate MaxiSorp Surface C, Nunc • 96 well plate polypropylene for compound dilution in DMSO • CHO Tie2/DHFR (transfected cells) • PBS−; PBS++, DMSO • MEM alpha Medium with Glutamax-I without Ribonucleosides and Deoxyribonucleosides (Gibco #32561-029) • with 10% FCS after dialysis! and 1% PenStrep • Lysis buffer: 1 Tablet “Complete” protease inhibitor • 1 cap Vanadate (1 mL>40 mg/mL; working solution 2 mM) • ad 50 mL with Duschl-Puffer • pH 7.6 • Anti-Tie2-antibody 1:425 in Coating Buffer pH 9.6 • Stock solution: 1.275 mg/mL>working.: 3 μg/mL • PBST: 2 bottles PBS (10×)+10 ml Tween, fill up with VE-water • RotiBlock 1:10 in VE-water • Anti-Phosphotyrosine HRP-Conjugated 1:10000 in 3% TopBlock • 3% TopBlock in PBST • BM Chemiluminescence ELISA Substrate (POD) • solution B 1:100 solution A • SF9 cell culture medium • Ang2-Fc in SF9 cell culture medium
• Dispense 5×10^4 cells/well/98 μL in 96 well tissue culture plate • Incubate at 37° C./5% CO2 • After 24 h add compounds according to desired concentrations • Add also to control and stimulated values without compounds 2 μL DMSO • And mix for a few min at room temperature • Add 100 μL Ang2-Fc to all wells except control, which receives insect medium • Incubate 20 min at 37° C. • Wash 3× with PBS++ • Add 100 μl Lysis buffer/well and shake a couple of min at room temperature • Store lysates at […] before utilizing for the ELISA
• Coat 96 well FluoroNunc Plate MaxiSorp Surface C with anti-Tie2 mAb 1:425 in Coating buffer pH 9.6; 100 μL/well overnight at 4° C. • Wash 2× with PBST • Block plates with 250 μL/well RotiBlock 1:10 in VE-water • Incubate for 2 h at room temperature or overnight at 4° C. shaking • Wash 2× in PBST • Add thawed lysates to wells and incubate overnight shaking at 4° C. • Wash 2× with PBST • Add 100 μL/well anti-Phosphotyrosine HRP-Conjugated 1:10000 in 3% TopBlock (3% TopBlock in PBST) and incubate overnight under shaking • Wash 6× with PBST • Add 100 μL/well BM Chemiluminescence ELISA Substrate (POD) solutions 1 und 2 (1:100) • Determine luminescence with the LumiCount. Assay 2: Tie-2-Kinase HTRF-Assay without Kinase Preactivation
Target sequence in this assay (Q02763 23-1124, species assumed): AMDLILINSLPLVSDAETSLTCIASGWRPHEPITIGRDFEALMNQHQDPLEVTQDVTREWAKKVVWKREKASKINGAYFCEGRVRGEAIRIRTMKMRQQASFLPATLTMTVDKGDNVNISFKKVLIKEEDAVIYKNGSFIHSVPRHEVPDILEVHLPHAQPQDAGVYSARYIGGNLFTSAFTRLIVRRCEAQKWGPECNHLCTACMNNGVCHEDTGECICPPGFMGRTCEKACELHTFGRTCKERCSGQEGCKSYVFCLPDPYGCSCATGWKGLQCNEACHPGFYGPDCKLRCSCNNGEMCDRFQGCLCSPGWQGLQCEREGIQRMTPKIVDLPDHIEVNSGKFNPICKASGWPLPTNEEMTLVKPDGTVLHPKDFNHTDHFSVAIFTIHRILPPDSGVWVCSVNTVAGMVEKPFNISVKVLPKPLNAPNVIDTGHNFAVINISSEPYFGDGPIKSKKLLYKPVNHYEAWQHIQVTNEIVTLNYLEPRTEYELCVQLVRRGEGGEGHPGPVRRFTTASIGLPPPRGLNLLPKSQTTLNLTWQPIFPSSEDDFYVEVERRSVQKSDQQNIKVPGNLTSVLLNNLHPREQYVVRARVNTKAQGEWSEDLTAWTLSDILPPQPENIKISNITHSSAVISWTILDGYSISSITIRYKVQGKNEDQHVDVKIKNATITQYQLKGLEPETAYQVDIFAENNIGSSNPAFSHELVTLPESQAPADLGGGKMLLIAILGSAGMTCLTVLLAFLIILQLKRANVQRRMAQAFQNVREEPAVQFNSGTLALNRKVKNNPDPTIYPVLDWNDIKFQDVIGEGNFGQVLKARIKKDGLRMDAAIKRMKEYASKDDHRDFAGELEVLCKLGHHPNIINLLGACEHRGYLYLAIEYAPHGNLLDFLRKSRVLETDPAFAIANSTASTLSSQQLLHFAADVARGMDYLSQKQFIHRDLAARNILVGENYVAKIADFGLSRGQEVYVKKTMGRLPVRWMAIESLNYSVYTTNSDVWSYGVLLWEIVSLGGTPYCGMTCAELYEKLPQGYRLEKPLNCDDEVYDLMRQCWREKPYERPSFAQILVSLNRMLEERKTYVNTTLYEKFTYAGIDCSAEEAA

[2] = target: T1, Tie2; test: Tie-2-Kinase HTRF-Assay without kinase preactivation; assay type: biochemical; design: fusion protein of GST and the intracellular domains of Tie-2; GST; made in house; host or cells: insect cells (Hi-5); conditions: GST-Tie-2 intracellular domains, 10 μM ATP
Source text: Tie2-inhibitory activity of compounds of the present invention was quantified employing two Tie2 HTRF assay as described in the following paragraphs.
A recombinant fusion protein of GST and the intracellular domains of Tie-2, expressed in insect cells (Hi-5) and purified by Glutathion-Sepharose affinity chromatography was used as kinase. Alternatively, commercially available GST-Tie2-fusion protein (Upstate Biotechnology, Dundee, Scotland) can be used As substrate for the kinase reaction the biotinylated peptide biotin-Ahx-EPKDDAYPLYSDFG (C-terminus in amid form) was used which can be purchased e.g. from the company Biosynthan GmbH (Berlin-Buch, Germany). Detection of phosphorylated product is achieved specifically by a trimeric detection complex consisting of the phosphorylated substrate, streptavidin-XLent (SA-XLent) which binds to biotin, and Europium Cryptate-labeled anti-phosphotyrosine antibody PT66 which binds to phosphorylated tyrosine.
Tie-2 (3.5 ng/measurement point) was incubated for 60 min at 22° C. in the presence of 10 μM adenosine-tri-phosphate (ATP) and 1 μM substrate peptide (biotin-Ahx-EPKDDAYPLYSDFG-NH2) with different concentrations of test compounds (0 μM and concentrations in the range 0.001-20 μM) in 5 μl assay buffer [50 mM Hepes/NaOH pH 7, 10 mM MgCl2, 0.5 mM MnCl2, 1.0 mM dithiothreitol, 0.01% NP40, protease inhibitor mixture (“Complete w/o EDTA” from Roche, 1 tablet per 2.5 ml), 1% (v/v) dimethylsulfoxide]. The reaction was stopped by the addition of 5 μl of an aqueous buffer (25 mM Hepes/NaOH pH 7.5, 0.28% (w/v) bovine serum albumin) containing EDTA (90 mM) and the HTRF (Homogeneous Time Resolved Fluorescence) detection reagents streptavidine-XLent (0.2 μM, from Cis Biointernational, Marcoule, France) and PT66-Eu-Chelate (0.3 ng/μl; a europium-chelate labelled anti-phospho-tyrosine antibody from Perkin Elmer).
The resulting mixture was incubated 1 h at 22° C. to allow the binding of the biotinylated phosphorylated peptide to the streptavidine-XLent and the PT66-Eu-Chelate. Subsequently the amount of phosphorylated substrate peptide was evaluated by measurement of the resonance energy transfer from the PT66-Eu-Chelate to the streptavidine-XLent. Therefore, the fluorescence emissions at 620 nm and 665 nm after excitation at 350 nm was measured in a HTRF reader, e.g. a Rubystar (BMG Labtechnologies, Offenburg, Germany) or a Viewlux (Perkin-Elmer). The ratio of the emissions at 665 nm and at […] was taken as the measure for the amount of phosphorylated substrate peptide. The data were normalised (enzyme reaction without inhibitor=0% inhibition, all other assay components but no enzyme=100% inhibition) and IC50 values were calculated by a 4 parameter fit using an inhouse software.
Target sequence in this assay (Q02763 770-1124 limits assumed, species assumed): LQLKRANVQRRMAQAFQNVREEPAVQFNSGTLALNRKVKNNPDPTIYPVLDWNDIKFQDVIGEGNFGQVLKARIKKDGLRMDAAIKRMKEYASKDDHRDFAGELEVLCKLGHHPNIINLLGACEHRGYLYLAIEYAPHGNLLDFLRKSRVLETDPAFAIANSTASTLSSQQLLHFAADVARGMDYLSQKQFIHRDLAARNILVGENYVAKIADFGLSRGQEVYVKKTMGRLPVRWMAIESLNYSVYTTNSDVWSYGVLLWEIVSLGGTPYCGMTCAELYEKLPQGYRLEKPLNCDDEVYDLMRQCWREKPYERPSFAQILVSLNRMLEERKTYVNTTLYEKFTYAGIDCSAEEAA

[3] = target: T1, Tie2; design: expressed in transfected cells; host or cells: CHO (CHO Tie2/DHFR); conditions: more potent against other kinases than against Tie2; cited from earlier work
Target sequence in this assay (Q02763 23-1124, species assumed): as the sequence (Q02763 23-1124, species assumed) above

[4] = target: T1, Tie2; design: expressed in transfected cells; host or cells: CHO (CHO Tie2/DHFR); conditions: Albert et al. Mol. Cancer. Ther. 2006, 5, 995; cited from earlier work
Target sequence in this assay (Q02763 23-1124, species assumed): as above

SMILES	IC50 [1] [nM]	IC50 [2] [nM]	potency against at least 5 other kinase targets relative to Tie2 [3] [times]	activity as inhibitor of cellular Tie2 autophosphorylation [4]
Cn1ncc2c(-c3ccc(NC(=O)Nc4ccc(CN5CCN(CC6CC6)CC5)c(C(F)(F)F)c4)cc3)cncc21 [Example 13.26, 1-[4-(4-Cyclopropylmethyl-piperazin-1-ylmethyl)-3-trifluoromethyl-phenyl]-3-[4-(1-methyl-1H-pyrazolo[3,4-c]pyridin-4-yl)-phenyl]-urea]	< 501	< 501		
Cc1ccc(F)c(NC(=O)Nc2ccc(-c3cccc4[nH]nc(N)c34)cc2)c1 [Abt-869]			> 10	only modest activity
